Test results as given in patent US20100197564A1, “DIARYL MORPHOLINES AS CB1 MODULATORS” (Schering Corporation, priority 2007, published 2010).

Molecular target: T1, cannabinoid CB1 (Homo sapiens, UniProt P21554)
T1 construct: purchased
Test: Competition binding assay for cannabinoid CB1 affinity (3H-CP55,940 displacement)
Settings: membranes from cells expressing the receptor, 0.5 nM 3H-CP55,940; Ki by Cheng-Prusoff; read-out: Ki values as measured in the above assay
Method: Non-specific binding was defined in the presence of 10 μM CP55,940. For saturation studies, concentrations of ^3H—CP55,940 ranging from 0.1-5 nM were incubated with membranes in the presence and absence of 10 μM CP55,940. Assays were terminated after incubation for 1½ hours by rapid filtration onto 0.3% polyethylenamine treated GF/C filterplates using a BRANDEL cell harvester. The plates were dried and MICROSCINT scintillation cocktail was added, after which the bound radioactivity was quantified using a TOPCOUNT scintillation counter.
The dissociation constant (Kd) of ^3H—CP55,940 at the CB1 and CB2 receptor were determined by plotting specific binding at each concentration of radioligand, and analysis by non-linear regression. For competition studies, the concentration of each drug that inhibited 50 percent of ^3H—CP55,940 binding (IC50) was determined by non-linear regression analysis of the radioligand displacement curves. Affinity constants (K) were calculated using the equation derived by Cheng and Prusoff (1973), defined as: IC50/1+[conc. ligand/Kd].

T1 sequence (P21554 whole entry): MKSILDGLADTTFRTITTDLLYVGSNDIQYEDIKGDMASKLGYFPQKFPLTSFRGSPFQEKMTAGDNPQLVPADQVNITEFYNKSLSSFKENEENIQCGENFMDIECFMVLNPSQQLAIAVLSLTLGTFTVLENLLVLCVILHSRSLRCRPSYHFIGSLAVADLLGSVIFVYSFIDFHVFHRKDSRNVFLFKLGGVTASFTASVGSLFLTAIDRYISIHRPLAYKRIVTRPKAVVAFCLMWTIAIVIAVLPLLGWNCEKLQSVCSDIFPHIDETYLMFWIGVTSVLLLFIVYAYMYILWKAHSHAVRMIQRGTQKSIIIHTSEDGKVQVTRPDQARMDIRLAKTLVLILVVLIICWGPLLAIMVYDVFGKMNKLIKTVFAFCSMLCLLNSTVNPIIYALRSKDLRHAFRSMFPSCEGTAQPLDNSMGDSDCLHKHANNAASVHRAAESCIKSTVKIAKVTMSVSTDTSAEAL

Fc1ccc(CC2CN(c3ccc(Cl)cc3)C(c3ccc(Cl)cc3Cl)CO2)cc1F (stereo not shown) [Example 1]
Ki: ≤ 100 nM

CC(C)(C)OC(=O)CC1OCC(c2ccc(Cl)cc2Cl)N(c2ccc(Cl)cc2)C1=O (stereo not shown) [Example 2]
Ki: ≤ 800 nM

NCCC1CN(c2ccc(Cl)cc2)C(c2ccc(Cl)cc2Cl)CO1 (stereo not shown) [Example 5]
Ki: ≤ 800 nM

O=S(=O)(NCCC1CN(c2ccc(Cl)cc2)C(c2ccc(Cl)cc2Cl)CO1)c1cccnc1 (stereo not shown) [Example 6]
Ki: ≤ 25 nM
